# Results from patent US9757375B2, “Compounds that inhibit human DNA ligases and methods of treating cancer” (University of Maryland, Baltimore, priority 2007, dated 2017).
# Key:
# MCF7 cells = assay: Colony forming (survival) assay; type: cell-based, human
# Experimental: For survival assays, cells were plated in 6 well plates and grown either in the absence or presence of ligase inhibitors. Where indicated, either MMS (0-50 μM) was added to the medium or the cells were irradiated in a Cs-137 irradiator (0-2.5 Gy). After two weeks, colonies were stained with crystal violet (Sigma) and then counted.
# To confirm that the DNA ligase inhibitors directly kill cells and potentiate cell killing by DNA damaging agents, we performed colony forming assays.
# Different concentrations of Compound 184 were added to asynchronous subconfluent populations of HCT116, MCF7 and MCF10A cells. Colonies were counted after two weeks. (FIG. 6A).
# Different concentrations of Compound 67 were added to asynchronous subconfluent populations of HCT116, MCF7 and MCF10A cells. After 1 hour, cultures were irradiated with 2 gray of ionizing radiation. Different concentrations of Compound 67 were added to asynchronous subconfluent populations of HCT116 and MCF10A cells in the absence or presence of MMS (50 μM). Colonies were counted after two weeks. (FIG. 6D).
# [1] = system: MCF10A, MCF7, HCT116, and HeLa cells; assay: Cell viability after 6 days on cell panel (FIG. 8); type: cell-based, human; conditions: FIG. 8, 6 days viability; MCF7 colonies, cell cycle
# Experimental: FIG. 8. […] A, MCF10A (▪), MCF7 (♦), HCT116 (▴), and HeLa (upsidedown triangle) cells were plated in the absence or presence of L82 (left), L67 (middle), and L189 (right). After 6 days, cell viability was measured and is expressed as a percentage of the value obtained with untreated cells. B, MCF7 cells were plated out in the absence or presence of L82 (top) and L67 (bottom) at the indicated concentrations. After 2 weeks, colonies were stained with crystal violet. C, after serum starvation for 4 days, MCF 7 cells were returned to serum-containing media either without (▪) or with 50 μmol/L of L82 (●). The cell cycle distribution at various time intervals was determined by fluorescence-activated cell sorting. D, asynchronous populations of MCF cells were either untreated (top) or treated with L82 at 10 μmol/L (middle) and 50 μmol/L (bottom). After 3 days, tubulin and DNA were visualized by fluorescence microscopy (bars, […]).
# [2] = system: Human DNA ligases I, III and IV and T4 DNA ligase; assay: Step 2 of the ligation reaction: DNA-AMP (DNA-adenylate) formation on non-ligatable nick; type: biochemical
# Experimental: To analyze step 2 of the ligation reaction, labeled ligase-AMP intermediates (10 pmol (22)) were incubated overnight at 25° C. with an unlabeled nonligatable version (dideoxy residue at the 3′-terminus of the nick) of the DNA oligonucleotide substrate (10 pmol), either in the presence or absence of the ligase inhibitors (100 μmol/L).
# Since the final two steps of the ligation reaction involve interactions with DNA, we examined the effects of the ligase inhibitors on the second (FIG. 3B) (The labeled ligase-adenylate form of human DNA ligases I, III and IV and T4 DNA ligase were incubated with a linear DNA substrate containing a single non-ligatable nick in the absence or presence of compounds 67, 82 and 189 (100 μM). After separation by denaturing gel electrophoresis, the labeled DNA-AMP complex was detected by phosphorimaging (26)) and third steps (FIG. 3C) of the ligation reaction using established assays (25,26) (Non-adenylated human DNA ligases I, III and IV and T4 DNA ligase were incubated with labeled DNA-AMP in the absence or presence of compounds 67, 82 and 189 (100 μM). After separation by denaturing gel electrophoresis, labeled ligated DNA was detected by phosphorimaging (25)).
smiles,measurement,setting,value
Cc1c(Br)cc(NCC(=O)N/N=C\c2cc([N+](=O)[O-])ccc2O)cc1Br [Compound 67],potentiation of killing by ionizing radiation,"MCF7 cells; MCF7, 2 gray, FIG. 6D",potentiates
same,potentiation of killing by MMS,"MCF7 cells; MCF7, MMS, FIG. 6D",potentiates
O=c1[nH]ncc(N/N=C\c2ccc(O)c([N+](=O)[O-])c2)c1Cl [Compound 82],"effect on cell viability / growth, in words",[1],cytostatic effect
CS(=O)(=O)NNC(=O)C(=O)NNc1ccccc1 [Compound 184],cell killing (colony formation),"MCF7 cells; MCF7, compound alone, compared with MCF10A, FIG. 6A",more effective at killing
Nc1nc(S)nc(O)c1/N=C/c1ccccc1 [Compound 189],inhibition of step 2 of the ligation reaction,"[2]; 100 μM, FIG. 3B",inhibits step 2
same,Mechanism: ligation step inhibited (2nd step),[2]; Table 5A,2nd
